From paper PMC223355 (BMC Biochemistry, 2003)
Read-outs that look alike come from different tables or passages of the source. Blank lines part the entries; values can stand above or below the compound they belong to.

Assays:
kynureninase [1] = biological target: T1, kynureninase (Pseudomonas fluorescens, UniProt P83788); conditions: as substrate of the Pseudomonas enzyme; cited from earlier work
T1 sequence (P83788 1-416): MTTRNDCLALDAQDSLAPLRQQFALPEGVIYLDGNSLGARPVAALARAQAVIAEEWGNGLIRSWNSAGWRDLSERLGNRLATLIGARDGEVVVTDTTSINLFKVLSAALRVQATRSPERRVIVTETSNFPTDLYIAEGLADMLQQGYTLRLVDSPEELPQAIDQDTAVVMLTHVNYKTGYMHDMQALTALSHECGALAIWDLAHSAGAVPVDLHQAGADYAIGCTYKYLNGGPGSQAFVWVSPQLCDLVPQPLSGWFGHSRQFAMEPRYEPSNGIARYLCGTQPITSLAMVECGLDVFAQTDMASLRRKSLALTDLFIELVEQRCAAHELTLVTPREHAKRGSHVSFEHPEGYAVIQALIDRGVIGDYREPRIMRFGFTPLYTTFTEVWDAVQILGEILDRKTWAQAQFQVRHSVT

rat hepatic kynureninase = biological target: T2, rat hepatic kynureninase (Rattus norvegicus, UniProt P70712); conditions: cited from earlier work
T2 sequence (P70712 1-464): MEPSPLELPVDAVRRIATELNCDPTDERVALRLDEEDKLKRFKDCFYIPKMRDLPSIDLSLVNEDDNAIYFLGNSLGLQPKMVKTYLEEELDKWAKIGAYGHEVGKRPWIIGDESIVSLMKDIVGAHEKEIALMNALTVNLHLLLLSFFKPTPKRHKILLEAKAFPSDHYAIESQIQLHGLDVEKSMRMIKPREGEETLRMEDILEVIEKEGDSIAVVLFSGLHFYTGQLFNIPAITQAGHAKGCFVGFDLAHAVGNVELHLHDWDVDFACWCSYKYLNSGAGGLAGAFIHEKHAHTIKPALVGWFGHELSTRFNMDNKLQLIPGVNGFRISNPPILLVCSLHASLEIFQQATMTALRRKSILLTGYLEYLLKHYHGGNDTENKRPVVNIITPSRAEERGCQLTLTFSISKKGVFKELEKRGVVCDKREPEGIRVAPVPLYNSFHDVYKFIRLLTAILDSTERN

[2] = biological target: T3, recombinant human kynureninase (Homo sapiens, UniProt Q16719); conditions: cited from earlier work
T3 sequence (Q16719 1-465): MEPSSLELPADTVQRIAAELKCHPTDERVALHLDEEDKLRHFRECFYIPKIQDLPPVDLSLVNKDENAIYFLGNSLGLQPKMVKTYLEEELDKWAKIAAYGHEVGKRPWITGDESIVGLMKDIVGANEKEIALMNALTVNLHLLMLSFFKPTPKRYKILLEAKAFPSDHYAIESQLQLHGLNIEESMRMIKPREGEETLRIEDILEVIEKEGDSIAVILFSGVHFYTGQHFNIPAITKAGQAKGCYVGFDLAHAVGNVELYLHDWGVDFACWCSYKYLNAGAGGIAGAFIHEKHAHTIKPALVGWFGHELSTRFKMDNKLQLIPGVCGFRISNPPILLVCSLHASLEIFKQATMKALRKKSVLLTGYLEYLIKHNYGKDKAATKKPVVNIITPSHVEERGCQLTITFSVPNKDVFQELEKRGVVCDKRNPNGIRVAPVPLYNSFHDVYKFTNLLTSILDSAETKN

kynureninase [3] = biological target: T1, kynureninase; experiment: Inhibition / kinetics of tryptophan-induced bacterial kynureninase; format: biochemical
[4] = biological target: T3, recombinant human kynureninase; experiment: Inhibition / kinetics of recombinant human kynureninase; format: biochemical; conditions: as substrate of the human enzyme

Compound: Nc1ccccc1C(=O)C[C@H](N)C(=O)O [L-kynurenine]
Km (kynureninase [1]): 44.2 µM
Km (rat hepatic kynureninase; as substrate of the rat enzyme, reported values, no reference given): 500 µM

Compound: Nc1c(O)cc(O)cc1C(=O)CCC(=O)O [dihydroxydesamino derivative, 3,5-dihydroxydesaminokynurenine]
Ki (rat hepatic kynureninase; rat enzyme (both mammalian enzymes), earlier report): ~0.25 µM
Ki ([2]; recombinant human enzyme (both mammalian enzymes), earlier report): ~0.25 µM

Compound: Nc1ccccc1C(=O)CCC(=O)O [desaminokynurenine]
Ki (kynureninase [3]; bacterial enzyme, unpublished results of the authors): 12 ± 3.1 µM
type of inhibition (kynureninase [3]; bacterial kynureninase, Lineweaver-Burk and Dixon plots): mixed inhibitor

substrate activity [4]: no appreciable substrate activity
Compound: Nc1ccccc1C(=O)CC(N)C(=O)O (centres unmarked) [kynurenine]

Compound: Nc1ccccc1C(=O)CC(N)C(=O)O [kynurenine D-enantiomer, kynurenine]
Ki ([2]; human enzyme (by context)): 12 µM
